According to patent US20140213647A1, “COMPOUND USEFUL FOR PREVENTING OR TREATING IRRITABLE BOWEL SYNDROME AND COMPOSITION INCLUDING SAME” (SK CHEMICALS CO., LTD., priority 2011, published 2014):
pIC50: −log10 of the molar value.

What was measured:
[1] = target: T1, human-derived NK2 receptor (Homo sapiens, UniProt P21452); assay: Inhibiting activity against NK2 receptor ([3H]SR-48968 competitive binding); details: cell membranes expressing human-derived NK2 receptor, ligand [3H]SR-48968, 25° C. 90 minutes
T1 construct: expressed in transfected cells
T1 sequence (P21452 1-398): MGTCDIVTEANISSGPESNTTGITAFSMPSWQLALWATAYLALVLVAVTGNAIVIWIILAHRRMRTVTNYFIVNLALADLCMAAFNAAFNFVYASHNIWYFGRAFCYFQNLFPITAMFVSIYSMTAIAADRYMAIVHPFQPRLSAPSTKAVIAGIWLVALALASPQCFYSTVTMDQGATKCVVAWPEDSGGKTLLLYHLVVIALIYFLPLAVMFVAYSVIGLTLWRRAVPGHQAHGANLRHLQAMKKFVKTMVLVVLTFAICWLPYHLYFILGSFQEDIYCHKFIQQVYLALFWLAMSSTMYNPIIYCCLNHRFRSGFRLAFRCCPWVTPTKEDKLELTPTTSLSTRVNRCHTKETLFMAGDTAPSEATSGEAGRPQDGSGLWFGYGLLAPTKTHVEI
Method: Each of 100 μl of a modified HEPES buffer was added to each well, to which the compound (50, 500, 1500, 5000, 15000 μM) dissolved in DMSO and a positive control, MEN-10,376 (0.5, 2.5, 5, 25, 50 μM) were added in an amount of 5 μl, respectively. Thereto, each of 50 μl of a NK2 receptor ligand, [3H]SR-48968 was added, and each of 100 μl of a modified HEPES buffer having cell membranes in which a human-derived NK2 receptor is expressed was added. After incubating with stirring (200 rpm) at 25° C. for 90 minutes, the resultants were filtered and washed 3 times.
The number of cell membranes bound with an isotope ([^3H]SR-48968) was calculated by means of […] measurement. At this time, as a test material is strongly bound with the receptor, the ligand [^3H]SR-48968 is not bound and measured values decrease (competitive bonding). The value for the well added with only the ligand was represented as “0% inhibition”, and the well having no ligand, as “100% inhibition’, and the inhibition rate was measured depending on the amount of drug concentration.

[2] = target: T2, human-derived motilin receptor (Homo sapiens, UniProt O43193); assay: Inhibiting activity against motilin receptor (radioligand binding); details: cell membranes expressing human-derived motilin receptor, 25° C. 150 minutes
T2 construct: expressed in transfected cells
T2 sequence (O43193 whole entry): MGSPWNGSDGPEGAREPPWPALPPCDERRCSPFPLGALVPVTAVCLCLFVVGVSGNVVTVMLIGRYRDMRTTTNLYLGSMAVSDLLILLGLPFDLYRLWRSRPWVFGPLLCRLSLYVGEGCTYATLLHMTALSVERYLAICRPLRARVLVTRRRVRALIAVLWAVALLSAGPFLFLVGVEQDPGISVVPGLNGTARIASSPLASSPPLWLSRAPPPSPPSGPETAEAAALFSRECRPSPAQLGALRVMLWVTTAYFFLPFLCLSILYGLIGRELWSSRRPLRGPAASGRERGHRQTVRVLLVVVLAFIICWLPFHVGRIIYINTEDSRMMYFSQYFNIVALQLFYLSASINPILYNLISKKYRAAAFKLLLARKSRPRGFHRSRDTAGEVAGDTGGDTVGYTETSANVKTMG
Method: Each of 100 μl of a modified Tris-HCl buffer was added to each well, to which the compound (50, 500, 1500, 5000, 15000 μM) of the present invention dissolved in DMSO and a positive control, motilin (2.5, 5, 25, 50, 250 μM) were added in an amount of 5 μl, respectively. Thereto, each of 50 μl of a motilin receptor ligand, […] was added, and each of 100 μl of a modified Tris-HCl buffer having cell membranes in which a human-derived motilin receptor is expressed was added. After incubating at 25° C. for 150 minutes, the resultants were filtered and washed 3 times. The number of cell membranes bound with an isotope was calculated by means of β-ray measurement.

[3] = target: T3, human-derived melanocortin MC1 receptor (Homo sapiens, UniProt Q01726); assay: Inhibiting activity against melanocortin MC1 receptor ([125I]NDP-a-MSH binding); details: cell membranes expressing human-derived melanocortin MC1 receptor, ligand [125I]NDP-a-MSH, 37° C. 120 minutes
T3 construct: expressed in transfected cells
T3 sequence (Q01726 whole entry): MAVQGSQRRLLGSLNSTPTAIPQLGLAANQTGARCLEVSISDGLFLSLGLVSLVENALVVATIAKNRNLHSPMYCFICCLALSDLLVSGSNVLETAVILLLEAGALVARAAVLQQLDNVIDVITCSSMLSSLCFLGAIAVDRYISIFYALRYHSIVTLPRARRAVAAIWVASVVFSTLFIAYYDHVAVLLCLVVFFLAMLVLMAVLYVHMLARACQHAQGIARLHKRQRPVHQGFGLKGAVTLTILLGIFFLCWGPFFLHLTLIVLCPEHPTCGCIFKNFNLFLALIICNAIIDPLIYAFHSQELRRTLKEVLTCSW
Method: (§1) Each of 100 μl of a modified HEPES-KOH buffer was added to each well, to which the compound (50, 500, 1500, 5000, 15000 μM) of the present invention dissolved in DMSO and a positive control, NDP-a-MSH (0.25, 0.5, 2.5, 5, 25 nM) were added in an amount of 5 μl, respectively. Thereto, each of 50 μl of a melanocortin MC1 receptor ligand, [^125l] NDP-a-MSH was added, and each of 100 μl of a modified Tris-HCl buffer having cell membranes in which a human-derived melanocortin MC1 receptor is expressed was added. After incubating at 37° C. for 120 minutes, the resultants were filtered and washed 3 times. The number of cell membranes bound with an isotope was calculated by means of β-ray measurement.

[4] = target: T4, human-derived cannabinoid CB2 receptor (Homo sapiens, UniProt P34972); assay: Inhibiting activity against cannabinoid CB2 receptor ([3H]WIN-55,212-2 binding); details: cell membranes expressing human-derived cannabinoid CB2 receptor, ligand [3H]WIN-55,212-2, 37° C. 90 minutes
T4 construct: expressed in transfected cells
T4 sequence (P34972 whole entry): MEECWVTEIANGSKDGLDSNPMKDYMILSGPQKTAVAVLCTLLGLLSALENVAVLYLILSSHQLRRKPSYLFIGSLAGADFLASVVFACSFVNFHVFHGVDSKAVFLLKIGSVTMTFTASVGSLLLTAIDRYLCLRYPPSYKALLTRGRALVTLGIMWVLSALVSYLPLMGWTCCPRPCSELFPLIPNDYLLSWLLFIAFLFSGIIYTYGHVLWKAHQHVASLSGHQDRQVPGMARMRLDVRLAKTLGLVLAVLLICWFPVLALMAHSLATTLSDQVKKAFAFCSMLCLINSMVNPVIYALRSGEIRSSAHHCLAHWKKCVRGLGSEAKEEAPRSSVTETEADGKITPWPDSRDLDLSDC
Method: as §1, with “HEPES” for “HEPES-KOH”, “R(+)-WIN-55, 212-2 (0.05, 0.25,” for “NDP-a-MSH (0.25,”, “5” for “5, 25”, “cannabinoid CB2” for “melanocortin MC1”, “[^3H]WIN-55, 212-2” for “[^125l] NDP-a-MSH”, “90” for “120”

[5] = target: T5, human-derived guanylate cyclase (Homo sapiens, UniProt Q02153); assay: Activity against guanylate cyclase (cGMP production, EIA); assay type: biochemical; details: Sf9 lysate with human-derived guanylate cyclase, antagonistic activity vs 30 μM sodium nitroprusside, cGMP by EIA
T5 construct: made in house; host or cells: Sf9 insect cells (lysate used)
T5 sequence (Q02153 1-619): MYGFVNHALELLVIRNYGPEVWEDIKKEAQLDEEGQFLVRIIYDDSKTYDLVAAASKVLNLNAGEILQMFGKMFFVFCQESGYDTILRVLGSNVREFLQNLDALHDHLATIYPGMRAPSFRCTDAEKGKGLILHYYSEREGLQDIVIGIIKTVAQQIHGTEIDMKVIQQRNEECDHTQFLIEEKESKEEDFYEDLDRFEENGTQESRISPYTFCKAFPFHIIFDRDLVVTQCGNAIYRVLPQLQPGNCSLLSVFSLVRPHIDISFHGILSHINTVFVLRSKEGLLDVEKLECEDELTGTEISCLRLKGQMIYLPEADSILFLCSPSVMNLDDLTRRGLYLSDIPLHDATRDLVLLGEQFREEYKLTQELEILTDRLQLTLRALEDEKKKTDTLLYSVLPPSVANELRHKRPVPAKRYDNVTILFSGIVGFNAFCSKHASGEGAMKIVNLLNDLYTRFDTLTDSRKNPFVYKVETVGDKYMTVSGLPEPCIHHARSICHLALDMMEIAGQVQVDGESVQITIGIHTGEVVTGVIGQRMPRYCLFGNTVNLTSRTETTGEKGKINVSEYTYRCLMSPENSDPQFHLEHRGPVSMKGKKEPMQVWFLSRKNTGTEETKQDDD
T5 sequence (Q02108 1-690 partner): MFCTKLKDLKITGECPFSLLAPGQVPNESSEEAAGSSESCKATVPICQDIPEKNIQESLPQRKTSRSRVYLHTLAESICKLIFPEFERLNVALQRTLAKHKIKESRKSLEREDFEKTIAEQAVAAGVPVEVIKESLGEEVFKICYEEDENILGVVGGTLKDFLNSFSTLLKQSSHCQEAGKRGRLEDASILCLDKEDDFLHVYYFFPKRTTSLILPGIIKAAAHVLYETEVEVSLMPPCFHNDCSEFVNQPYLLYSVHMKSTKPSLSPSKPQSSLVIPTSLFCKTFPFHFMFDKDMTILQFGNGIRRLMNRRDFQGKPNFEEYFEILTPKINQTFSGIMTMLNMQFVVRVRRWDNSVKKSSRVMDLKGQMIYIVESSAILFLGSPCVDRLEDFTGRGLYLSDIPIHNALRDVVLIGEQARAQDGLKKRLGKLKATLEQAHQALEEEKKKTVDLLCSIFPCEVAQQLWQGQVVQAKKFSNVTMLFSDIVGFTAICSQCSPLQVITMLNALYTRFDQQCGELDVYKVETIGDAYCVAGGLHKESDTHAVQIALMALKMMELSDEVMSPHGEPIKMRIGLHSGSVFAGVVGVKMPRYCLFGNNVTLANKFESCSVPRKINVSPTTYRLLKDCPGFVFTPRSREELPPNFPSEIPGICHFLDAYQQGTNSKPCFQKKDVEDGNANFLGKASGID
Method: Plasmid in which a human-derived guanylate cyclase is expressed was transfected to Sf9 insect cells, followed by proliferation and then lysis. The compound (1, 10, 30, 100, 300 μM) of the present invention dissolved in DMSO and a positive control, ODQ (1H-[1,2,4]oxadiazolo[4,3-a]quinoxalin-1-one, 0.5, 0.1, 0.05, 0.01, 0.005 μM) were added to each well, to which guanylate cyclase (the lysed solution) which is mixed in a modified Tris-HCl buffer was added until its final concentration became to 0.013 μg/ml. After incubating at 37° C. for 20 minutes, 1N HCl was added to end the reaction.
After removing the guanylate cyclase, an amount of cGMP produced from the reaction was subject to quantitative measurement using an EIA kit. The amount of cGMP increases as the guanylate cyclase converting GTP to cGMP is activated. The activation of the guanylate cyclase was calculated based on the assumption that the result of sodium nitroprusside (30 μM), an agonist of the guanylate cyclase was 100%. The antagonistic activity against the guanylate cyclase was calculated based on the assumption that the result when treated only with 30 μM of sodium nitroprusside was 100% compared to when treated with both sodium nitroprusside and a drug.

[6] = test system: visceral hypersensitivity in colitis-induced rats; assay: Suppressing effect of visceral pain in CRD (colorectal distension) model; assay type: in vivo, Sprague-Dawley male rats; details: CRD test about 1 hour after dosing
Method: To evaluate the suppressing effect of the separated (6E,12E)-3-hydroxytetradeca-6,12-dien-8,10-diyn-1-yl acetate on the visceral hypersensitivity, a Colorectal Distension (CRD) test that has been often used in the evaluation of drugs for IBS was conducted as follows (see J H. La et al., World J. Gastroenterol. Dec., 9(12): p 2791-2795, 2003).
250 to 300 g of Sprague-Dawley male rats (Charles River) were used for the CRD test. Two rats per one cage were reared in a room of 25° C., humidity 50%, and day-night 12:12 hours of cycle. Rats were freely provided with drink water and food, and were adapted to the room condition for 5 days, followed by inducing colitis. […]
A 2 cm-long rubber balloon was inserted into the rectum of each rat, and was filled with 37° C-warmed water in stages, from 0.1 to 1.0 ml. The appearing pain reactions of rats were recorded. The specific behaviors of CRD test animals were represented with AWR (abdominal withdrawal reflex), which was indirectly and quantitatively analyzed by AWR scores given on each behavior, and the AWR scores were used for identifying the abdominal pain reaction. […]
The presence of visceral hypersensitivity was checked in CRD rats 7 days after inducing colitis. […] Student's t-test (p<0.01 (**) or p<0.001 (***)) was used for statistical approach, and significance relative to the vehicle-administered group was detected. […]

C/C=C/C#CC#C/C=C/CCC(O)CCOC(C)=O (stereo not shown) [(6E,12E)-3-hydroxytetradeca-6,12-dien-8,10-diyn-1-yl acetate] showed a pIC50 [1] of 4.51, a pIC50 [2] of 4.54 and a pIC50 [3] of 3.88. The pIC50 [4] was 4.35, the pIC50 [5] was 4.72 and the “suppressing effect against visceral hypersensitivity relative to the vehicle group (AWR score / AUC, FIG. 2)” value ([6]; 100 mg/kg orally, Student's t-test) was “significant suppressing effect against visceral hypersensitivity”. For the same molecule, the “suppressing effect against visceral pain (AWR score / AUC, FIG. 2)” value ([6]; 10, 30 and 100 mg/kg orally) was “suppressing effect against visceral pain occurred in visceral hypersensitivity as its concentration increased”.
